≈ marks a conversion by molar mass, not a printed value.
Legend:
T. cruzi epimastigotes = test system: T. cruzi epimastigotes; design: method as in number not given; conditions: literature data; ref number not given; cited from earlier work
[1] = test system: trypomastigote forms of T. cruzi; design: method as in number not given; conditions: previous studies; ref number not given; cited from earlier work
[2] = test system: amastigote forms of L. (L.) infantum; design: method as in number not given; conditions: previous studies; ref number not given; cited from earlier work
T. cruzi = test system: T. cruzi; design: method as in number not given; conditions: literature data; ref number not given; cited from earlier work
mammalian cells = test system: mammalian cells; design: method as in number not given; conditions: literature data; ref number not given; cited from earlier work
[3] = Cytotoxicity against mammalian cells (MTT); assay type: cell-based; conditions: mouse, NCTC clone 929 fibroblasts, NCTC clone 929 murine fibroblasts
Description: The cytotoxicity of the mixture of 1–10 was examined in cells of the NCTC lineage (clone 929) at a density of 6 × 10^4 cells per well. The cells were cultivated in 96-well plates containing different concentrations of the mixture, serially diluted using RPMI 1640 medium supplemented with 10% fetal bovine serum (FBS). Incubation took place over 48 h, in an incubator maintained at 37 °C with 5% CO2. The cell viability of NCTC cells (clone 929) was subsequently evaluated using the MTT colorimetric assay.

[4] = test system: trypomastigote forms of T. cruzi (strain Y); assay: In vitro EC50 against trypomastigote forms of T. cruzi (resazurin viability); assay type: cell-based; conditions: Trypanosoma cruzi; trypomastigotes, 24 h; read-out: T. cruzi EC50 TRYPO
Description: Trypomastigote forms (strain Y) of T. cruzi were obtained from Swiss mice (Mus musculus) previously infected intraperitoneally. The trypomastigote forms were used to infect LLC-MK2 cell cultures consisting of Macaca mulatta kidney epithelial cells (ATCC CCL 7) grown in RPMI-1640 medium containing 2% fetal bovine serum (FBS). The infected cell cultures were maintained in an incubator at 37 °C with 5% CO2, as previously described. , To evaluate the 50% effective concentration (EC50) against the trypomastigote forms of T. cruzi, mixture 1–10 was serially solubilized in the RPMI-1640 culture medium in 96-well plates. Subsequently, the trypomastigote forms of T. cruzi were added, at a concentration of 1 × 10^6 trypomastigotes per well. After an incubation period of 24 h at 37 °C with 5% CO2, to determine the viability of trypomastigotes, 20 μL of 10% Alamar Blue (resazurin) was added, followed by a new incubation of the plates for 20 h under the same conditions. At the end of the tests, the plates were read by absorption using a microplate spectrophotometer (Filter Max F5 Multi-Mode Microplate Reader) at 570 nm, as previously described. Benznidazole was used as a positive control, while cells not subjected to treatment were used as a negative control.

[5] = test system: amastigote forms of T. cruzi; assay: In vitro EC50 against intracellular amastigote forms of T. cruzi in peritoneal macrophages (Giemsa, infection index); assay type: cell-based; conditions: Trypanosoma cruzi, Peritoneal macrophage; intracellular amastigotes, 48 h; read-out: T. cruzi EC50 AMA
Description: After collecting and counting the cells, they were seeded in Nunc brand 16-well plates and incubated for 18 h at 37 °C in an incubator containing 5% CO2. Nonadherent cells were then removed by washing with RPMI-1640 medium. Subsequently, the cells were infected with trypomastigotes at a ratio of 10:1 per well during an incubation period of 4 h. The mixture of compounds, previously diluted in series, was added and incubated for 48 h to determine the EC50 against amastigotes. After the incubation phase, the glass slides were fixed using MeOH for 5 min and then stained with Giemsa for 7 min. This procedure allowed for observation under a light microscope. The infection index was obtained in 200 macrophages/slide according to the formula: infected macrophages × number of amastigotes/total number of macrophages. Benznidazole was used as a standard drug. ,

For CCCCCCCCC#CCCCCCCCC(=O)O [9-octadecinoic acid], the “inhibition of growth of T. cruzi epimastigotes” value (T. cruzi epimastigotes) is listed as “inhibitory capacity” and the “activity against trypomastigote forms of T. cruzi” value [1] is listed as “effective results”.

In the case of C=CCCCCCCC#CCCCCCCCCCCCC(=O)O [Compound 2, docos-21-en-13-inoic acid], the “in vitro activity against amastigote forms of L. (L.) infantum” value [2] is given as “in vitro activity”.

In the case of CCCCCCCCCCCCCCCCCC(=O)O [stearic acid], the “activity against T. cruzi” value (T. cruzi) is given as “inactivity”.

For CCCC#CC#CCCCCCCCCCCC(=O)O [macrocarpathic acid, 12,14-octadecadiinoic acid], the “cytotoxic effect on mammalian cells” value (mammalian cells) is given as “cytotoxic effect”.

With O=C(Cn1ccnc1[N+](=O)[O-])NCc1ccccc1 [benznidazole] the CC50 at 48 h [3] was over 200 µg/mL, the EC50 [4] was 3.9 ± 1.2 µg/mL (≈ 15 µM) and the EC50 [5] was 0.9 ± 0.2 µg/mL (≈ 3.46 µM).
